Values quoted from earlier work in US20250360174A1, “ENGINEERED BACTERIA, ENGINEERED BIOFILMS, AND LIVING MATERIALS BASED ON BACILLUS SUBTILIS” (EAST CHINA UNIVERSITY OF SCIENCE AND TECHNOLOGY, priority 2024, published 2025).

System: RAW264.7 cells

Q: For `O[C@H]1[C@@H]2OC[C@H](O[C@H]1O)[C@H]2O` [L-AHG, 3,6-anhydro-α-L-galactose], which anti-inflammatory activity is on record?
A: has been shown to have anti-inflammatory activity
